Data as given in US8343458B2, “Probes for in vivo targeting of active cysteine proteases” (The Board of Trustees of the Leland Stanford Junior …, priority 2008, dated 2013).
“Also recorded” adds a separate entry of the source.

Key:
cathepsin B [1] = conditions: Kato et al. Nat Chem Biol 2005; cited from earlier work
Cathepsin Z, H, J, C = conditions: Kato et al. Nat Chem Biol 2005; cited from earlier work
[2] = Octanol/water partition coefficient; format: physicochemical; conditions: octanol / PBS pH 7.4, repeated 3 times
Description: Octanol/water partition coefficient. To determine the lipophilicity of ^64Cu-Z-FK(DOTA)-AOMK, approximately 370 kBq of ^64Cu-labeled complex in 500 μl of PBS (pH 7.4) was added to 500 μl of octanol in an eppendorf microcentrifuge tube. The resulting biphasic system was mixed vigorously for 10 min and left at room temperature for another 60 min. The two phases were then separated by centrifugation at 2000 g for 5 min (model 5415R Eppendorf microcentrifuge; Brinkman, Westbury, N.Y.). From each layer, an aliquot of 100 μl was removed and counted in a γ-counter (Packard Instruments). The partition coefficient (log P) was then calculated as a ratio of counts in the octanol fraction to the counts in the water fraction. The experiment was repeated 3 times. The lipophilicity of the probe affects its in vivo pharmacokinetics, and should be modest (˜0), with hydrophobic and hydrophilic groups present. For further details, see Lin et al., “Role of Pharmacokinetics and Metabolism in Drug Discovery and Development,” Pharmacological Reviews, Vol. 49, Issue 4, 403-449, December 1997.

C2C12/Ras tumors = assay: Biodistribution in nude mice bearing subcutaneous C2C12/Ras tumors; format: in vivo, mouse; conditions: C2C12/Ras tumor mice, i.v. 740 kBq
Description: All animal studies were carried out in compliance with Federal and local institutional rules for the conduct of animal experimentation. Female athymic nude mice (nu/nu) were obtained from Charles River Laboratories (Boston, Mass.) at 7-8 weeks old and kept under sterile conditions. The nude mice were inoculated subcutaneously in the right shoulder with 2×10^6 cultured C2C12/Ras cells or 5×10^6 MDA-MB-435 cells. When the tumors reach 0.5-0.8 cm in diameter, the tumor bearing mice were subjected to in vivo biodistribution studies. For biodistribution studies, the mice bearing C2C12/Ras or MDA-MB-435 tumor xenografts (n=3 for each group) were injected with 740 KBq (20 μCi) of ^64Cu labeled tracer through the tail vein and sacrificed at different time points post injection (p.i.). Tumor and normal tissues of interest were removed and weighed, and their radioactivity was measured in a gamma-counter. The radioactivity uptake in the tumor and normal tissues was expressed as a percentage of the injected radioactive dose per gram of tissue (% ID/g).
We next examined the overall biodistribution of ^64Cu-Z-FK(DOTA)-AOMK using athymic nude mice carrying subcutaneously grafted C2C12/Ras and MDA-MB-435 tumors. […] Importantly, we observed rapid accumulation of radioactivity in the C2C12/Ras tumors expressing high levels of cysteine cathepsins (0.35±0.13% ID/g at 0.5 h p.i.). This activity remained in the tumors resulting in an uptake of 0.27±0.05% ID/g at 24 h p.i. For the MDA-MB-435 tumors with lower cysteine cathepsin expression, tumor uptake was approximately 2 fold lower at each time point relative to the C2C12/Ras tumors (P<0.05). […] The highest radioactivity was found in the liver due to high endogenous expression of various cysteine cathepsins. Moderate renal accumulation was also observed at all times in both tumor models.
Data are expressed as the percentage administered activity (injected dose) per gram of tissue (% ID/g) after intravenous injection of 740 kBq (20 μCi) of ^64Cu-Z-FK(DOTA)-AOMK at 0.5, 2, and 24 h pi (n=3). Significant lower tumor uptake and tumor/blood, tumor/muscle ratio in MDA-MB-435 breast cancer (P<0.05) were observed.

human cathepsin L = human cathepsin L (Homo sapiens, UniProt P07711); assay: Kinetic inhibition study, cathepsin L; format: biochemical; conditions: kinetic inhibition studies
Sequence of human cathepsin L (P07711 114-333): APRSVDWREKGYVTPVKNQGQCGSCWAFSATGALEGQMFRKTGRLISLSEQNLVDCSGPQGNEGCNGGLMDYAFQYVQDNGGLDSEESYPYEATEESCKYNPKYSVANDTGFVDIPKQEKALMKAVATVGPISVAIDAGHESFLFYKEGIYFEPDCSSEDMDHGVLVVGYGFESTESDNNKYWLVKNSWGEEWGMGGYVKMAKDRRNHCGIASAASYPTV
From the text: (§1) We attached the chelator and radionuclide to the probe at the P1 lysine side-chain. By attaching the radiolabel to a side chain, it is less likely to interfere with the binding of the AOMK warhead to the active protease. Previous work has shown that the majority of critical substrate interactions take place in the P2 position of the papain family proteases.
(§2) The kinetics of inhibition may be determined by progress curve method under pseudo-first order conditions with at least 10-fold molar excess of inhibitor. Recorded progress curves are analysed by non-linear regression according to the following equation (Bieth, J. G. Theoretical and practical aspects of proteinase inhibition kinetics. Methods Enzymol, 248, 59-84 (1995).) [P]=vz(1−e^−k·t)/k • where [P] is the product, vz is the velocity at time zero and k is the pseudo first order rate constant. Apparent rate constant (kapp) was determined from the slope of plot k versus [I]. […]
(§3) Activity of human cathepsin L is measured using the fluorogenic substrate Z-FRAMC37 (Bachem, USA) (Km=7.1 μM) and cathepsin B is assayed against the fluorogenic substrate Z-RR-AMC38 (Bachem, USA) (Km=114 μM). […] Increase of fluorescence (370 nm excitation, 460 nm emission) is continuously monitored for 30 minutes by Spectramax M5 spectrofluorimeter. (Molecular Devices, USA) and inhibition curves were recorded. […]

cathepsin B [3] = biological target: cathepsin B (Homo sapiens, UniProt P07858); assay: Kinetic inhibition study, cathepsin B; format: biochemical; conditions: kinetic inhibition studies
From the text: as §1, §2, §3

[4] = test system: thymus tissue undergoing apoptosis; assay: Tissue uptake in dexamethasone apoptosis mouse model; format: in vivo; conditions: dexamethasone-treated mice, 125I-labeled probe, radioactivity over time
Description: Graphs are for thymus, blood, muscle and liver.
Distribution studies were done in mice that were treated with dexamethazone (IP injection) to induce apoptosis in the thymus. This animal model is further described, e.g., in Casteels et al. “Sex Difference in Resistance to Dexamethasone-Induced Apoptosis in NOD Mice,” Diabetes, 47:1033-1037, 1998. AB53 was labeled with ^125I at the nitrophenol capping group.
Referring now to FIG. 6, data for the uptake of the probe in different tissues was obtained. Presented there are four graphs, one for thymus (FIG. 6A), one for blood (FIG. 6B) one for muscle (FIG. 6C) and one for liver (FIG. 6D), showing data from the in vivo uptake studies with ^125I-AB53. Graphs plot radioactivity as percent of initial dose/g of tissue from ^125I measured in different organs over time.

Cc1cccc(C)c1C(=O)OCC(=O)[C@H](CCCNC(=N)N)NC(=O)[C@H](Cc1ccccc1)NC(=O)OCc1ccccc1 [Z-FR-AOMK]
Activity against cathepsin B (cathepsin B [1]): active only against cathepsin B; also recorded: inhibits cathepsin B
Activity against cathepsins Z, H, J, C (Cathepsin Z, H, J, C): not cathepsins Z, H, J, H or C; also recorded: not Cathepsin Z, H, J, C or H

Cc1cccc(C)c1C(=O)OCC(=O)[C@H](CCCCNC(=O)CN1CCN(CC(=O)O)CCN(CC(=O)O)CCN(CC(=O)O)CC1)NC(=O)[C@H](Cc1ccccc1)NC(=O)OCc1ccccc1 [Z-FK(DOTA)-AOMK]
log P (octanol-water partition coefficient) [2]: −0.10±0.04
Biodistribution: Tumor (C2C12/Ras tumors; 2 h p.i.): 0.30±0.03 % ID/g
Biodistribution: Tumor (C2C12/Ras tumors; 24 h p.i.): 0.27±0.05 % ID/g

Cc1cccc(C)c1C(=O)OCC(=O)[C@H](CCCCN)NC(=O)[C@H](Cc1ccccc1)NC(=O)OCc1ccccc1 [NH2-GB11]
Loss of potency towards cathepsin L on modification of the P1 lysine (human cathepsin L): 100 fold
Loss of potency for cathepsin B on modification of the P1 lysine (cathepsin B [3]): 30 fold

Cc1cccc(C)c1C(=O)OCC(=O)[C@H](CC(=O)O)NC(=O)C1CCCN1C(=O)[C@H](Cc1ccc(-c2ccccc2)cc1)NC(=O)Cc1ccc([N+](=O)[O-])c(O)c1 (some centres unmarked) [AB53]
Probe uptake in thymus [4]: accumulates specifically in the thymus tissue that is undergoing apoptosis
